Measured values: patent US20090099502A1, “Microneedle Device And Transdermal Administration Device Provided With Microneedles” (HISAMITSU PHARMACEUTICAL CO., INC., priority 2006, published 2009)
Entries after “also recorded” stand apart in the source; their conditions may differ. Structures can show the parent of a compound that is named as a salt.

Tests used:
hairless rat skin [1] = test system: hairless rat skin
From the text: (§1) A piece of foam tape (#9773, 7.84 cm^2) of 3M Company was pasted on the back side of the microneedle substrate in such a way that the adhesive layer of the tape would face the skin. The projecting ends of the tape were attached to the skin to bring the microneedle side of the microneedle substrate in close contact with the skin. To start the experiment, the microneedle substrate was placed on the skin and pressure applied (2 kg/patch for 5 seconds) on the substrate with a finger.
(§2) Microneedles (800 piles/patch) were coated all over their surfaces with 30 μl/patch one of the coating carriers, and dried at room temperature for 12 h for fixing. Skin removed from hairless rats was pierced with microneedles coated with the drug formulations, including those having their free forms, and samples were removed periodically. Phosphate buffer solution (PBS) was used for the receptor layer. The receptor solution sample, sampled at different time points, and acetonitrile were mixed at 1:1 ratio, stirred, centrifuged (15,000 rpm, 5° C., 5 minutes), then the supernatant was recovered, and its drug content measured by HPLC.
Animal species: Hairless rat (n=3)

hairless rat skin [2] = test: Skin permeation tests with a drug in its free and salt forms using hairless rats (Example 7); conditions: both the fumarate and the free form, PVA117 coating
From the text: as §1, §2
Animal species: Hairless rat (n=3)

[3] = whether in the free or the salt form; cited from earlier work
hairless rat skin [4] = test: Skin permeation test of granisetron hydrochloride, blister-type drug product (Example 5); assay type: in vitro ADME; conditions: in examples 4 and 5
Method: In this experiment, the coating carrier was prepared for the entire surface of microneedles by using only 5 wt. % polyvinyl alcohol (PVA117), and the microneedles (800 pile/patch) were coated all over the surface with 30 μl/patch and dried for 12 h at room temperature for fixing. After piercing the skin with the microneedles, […] 32 wt. % aqueous solution of granisetron hydrochloride, 30 μl, was applied through the through-holes (openings) on the microneedle substrate. There were two control groups. In one of these, the microneedles were not given any coating and 30 μl of the drug solution alone was applied through the through-holes. In the other control group, an aqueous solution containing 5 wt. % of polyvinyl alcohol and 32 wt. % of granisetron hydrochloride was prepared, as before, as the coating carrier, and the microneedles (800 piles/patch) were coated all over the surface with 15 μl/patch of this coating carrier.
Skin was then removed from the trunk of a hairless rat and fitted to a vertical acrylic cell (2.54 cm^2) with the dermis side facing the receptor layer, and the whole assembly was placed in a constant temperature chamber set at 37° C. […] The drug content of the receptor solution obtained at each time of sampling was measured by HPLC (Excitation: 298 nm, fluorescence: 353 nm). […]

Row | Structure (SMILES) | maximum flux, salt form compared with free form (hairless rat skin [1]) | maximum flux, Free form (hairless rat skin [1]; hairless, rat, 16 wt. %) | maximum flux, Salt (hairless rat skin [1]; hairless, rat, 16 wt. %) | skin permeability (hairless rat skin [2]) | amount of drug permeation (hairless rat skin [1]; hairless, rat, 16 wt. %) | solubility in water [3] | skin permeability (hairless rat skin [4])
1 | CC(C)NCC(O)COc1ccc(COCCOC(C)C)cc1 (stereo not drawn) [Bisoprolol, bisoprolol] | higher maximum flux in their salt form than in their free form | 60 μg/cm^2/hr | 90 μg/cm^2/hr | good skin permeability |  |  | 
2 | CCCN1C[C@H](CSC)C[C@@H]2c3cccc4[nH]cc(c34)C[C@H]21 [Pergolide, pergolide] |  | 0.1< μg/cm^2/hr | 0.1< μg/cm^2/hr |  | about 1 μg | almost no solubility in water; also recorded: extremely low solubility | 
3 | CCCN[C@H]1CCc2nc(N)sc2C1 [Pramipexol, pramipexol] | higher maximum flux in their salt form than in their free form | 100 μg/cm^2/hr | 180 μg/cm^2/hr |  |  |  | 
4 | CN1C2CCCC1CC(NC(=O)c1nn(C)c3ccccc13)C2 (stereo not drawn) [granisetron hydrochloride] |  |  |  |  |  |  | good skin permeability
